Values of other authors, collected in patent publication US12691091B2, “Compositions comprising cetylated fatty acids for use in the treatment of gastric mucosa, diabetes and high blood glucose levels” (PHARMANUTRA S.P.A., priority 2019, dated 2026).

Conditions: European Union food additive E319

For `CC(C)(C)c1cc(O)ccc1O` [TBHQ, Tert-butyl-hydroquinone], the “acceptable daily intake (ADI)” value is listed as 0.7 mg/kg of body weight.
